As a reminder, the GI50 is the concentration at which growth is held to half of that of the control.

Test systems include LOX IMVI; SK-OV-3; SF-295; HCT-116; NCI-H460; SN12C; COLO 205; UACC-62; 786-0; SK-MEL-2; A498; CCRF-CEM; IGROV-1; HCT-15; RXF 393; NCI-H522; KM12; HL-60; HT-29; SF-268.
What all share (experiment): DTP human tumour cell line panel, 48 h

SMILES strings stand for the structures.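 Tested at 5 concentrations; 48 h exposure; 96-well plates; endpoints linearly interpolated, else capped at highest concentration. GI50 = concentration required for 50% inhibition of growth.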 Active and inactive are the calls of the source. No stated cut-off is given here; in the data, active = GI50 up to about 1.1 µM and inactive = higher.

Consider `C/C(=N/NC(=S)Nc1ccc([N+](=O)[O-])cc1)c1cccc(/C(C)=N\NC(=S)Nc2ccc([N+](=O)[O-])cc2)n1`, for which the GI50 in the assay with LOX IMVI is 0.313 µM (active); in the assay on SK-OV-3, 2.13 µM (inactive); in the assay with SF-295, 0.564 µM (active); with HCT-116 it was 0.291 µM (active); in the assay on NCI-H460 it was 0.34 µM (active); with SN12C, 0.671 µM (active). Further, the GI50 in the assay with COLO 205 was 0.218 µM (active); in the assay with UACC-62, 0.493 µM (active); in the assay on 786-0, 0.264 µM (active); in the assay on SK-MEL-2, 3.99 µM (inactive); in the assay on A498, 1.09 µM (active); in the assay with CCRF-CEM, 0.318 µM (active). For the same compound, the GI50 in the assay on IGROV-1 is 0.569 µM (active); with HCT-15 it was 0.125 µM; with RXF 393, 0.53 µM (active); with NCI-H522, 0.628 µM (active); in the assay with KM12, 0.348 µM (active); in the assay on HL-60, 0.265 µM (active). Further, the GI50 with HT-29 is 0.628 µM (active).
As to `CC(=O)OC1C(O)COC(O[C@H]2CC[C@]34C[C@]35CC[C@]3(C)C([C@@]6(C)CC[C@@H](C(C)(C)O)O6)[C@@H](O)C[C@@]3(C)C5C[C@H](OC3OCC(O)C(O)C3O)[C@H]4C2(C)C)C1OC1OCC(O)C(O)C1O` (stereo partly specified), the GI50 with LOX IMVI, in the assay with SK-OV-3, in the assay on SF-295, in the assay on HCT-116, in the assay with SF-268 and in the assay on NCI-H460 was > 100 µM (inactive) throughout. Further, the GI50 in the assay on SN12C, with COLO 205, in the assay with UACC-62, in the assay with 786-0, with SK-MEL-2 and with A498 was > 100 µM (inactive) each time. The GI50 is > 100 µM (inactive) with IGROV-1; more than 100 µM in the assay with HCT-15; > 86.3 µM (inactive) in the assay on RXF 393; > 100 µM (inactive) in the assay with NCI-H522; > 100 µM (inactive) in the assay on KM12; 11.6 µM (inactive) with HL-60. For the same compound, the GI50 in the assay with HT-29 was > 100 µM (inactive).
`c1ccc(SC(Sc2ccccc2)c2ccc3c(c2)OCO3)cc1`: the GI50 in the assay with LOX IMVI was > 100 µM (inactive); with SF-295 it was > 100 µM (inactive); in the assay with HCT-116, > 100 µM (inactive); in the assay on SF-268, 93.1 µM (inactive); with NCI-H460, > 100 µM (inactive); with SN12C, > 100 µM (inactive). Moreover, the GI50 in the assay with UACC-62 was > 100 µM (inactive); in the assay on 786-0, > 100 µM (inactive); in the assay on SK-MEL-2, > 100 µM (inactive); with A498, 90.2 µM (inactive); with CCRF-CEM, > 100 µM (inactive); in the assay on IGROV-1 it was > 100 µM (inactive). Further, the GI50 in the assay on HCT-15 was more than 100 µM; in the assay on RXF 393, > 100 µM (inactive); with NCI-H522 it was 85.9 µM (inactive); in the assay with KM12 it was > 100 µM (inactive); in the assay on HL-60 it was > 100 µM (inactive); with HT-29, 65.2 µM (inactive).
In the case of `O=[N+]([O-])C1C2C=CC(C2)[C@H]1c1ccc(Cl)cc1Cl` (stereo partly specified), the GI50 with LOX IMVI was 29.7 µM (inactive); in the assay on SF-295, 24.8 µM (inactive); with HCT-116 it was 37 µM (inactive); in the assay with SF-268, 45.1 µM (inactive); in the assay on NCI-H460, 36.2 µM (inactive); in the assay with SN12C it was 67 µM (inactive). The GI50 was 54.3 µM (inactive) in the assay with 786-0; 44.9 µM (inactive) with SK-MEL-2; 55 µM (inactive) in the assay with A498; 39.4 µM (inactive) with CCRF-CEM; 43.3 µM in the assay with HCT-15; 20.9 µM (inactive) with RXF 393. The GI50 is > 10 µM (inactive) in the assay on NCI-H522, 61.2 µM (inactive) in the assay with KM12, 19.3 µM (inactive) with HL-60 and 21.4 µM (inactive) with HT-29.
Regarding `Cc1nc2ccc(F)cc2c2c1CCO2`, the GI50 in the assay on LOX IMVI was > 100 µM (inactive); in the assay with SF-295 it was > 100 µM (inactive); in the assay on HCT-116, 68.1 µM (inactive); in the assay with SF-268, > 100 µM (inactive); in the assay on NCI-H460, 61.1 µM (inactive); in the assay with SN12C it was 30.3 µM (inactive). Also, the GI50 was 72.8 µM (inactive) with COLO 205; > 100 µM (inactive) with UACC-62; > 100 µM (inactive) in the assay on 786-0; > 100 µM (inactive) in the assay with SK-MEL-2; > 100 µM (inactive) in the assay on A498; > 100 µM (inactive) in the assay with CCRF-CEM. The GI50 in the assay with IGROV-1 is > 100 µM (inactive); with HCT-15, more than 100 µM; in the assay on RXF 393, 36.8 µM (inactive); in the assay on NCI-H522, > 100 µM (inactive); in the assay on KM12, > 100 µM (inactive); with HL-60, 24.5 µM (inactive). Moreover, the GI50 in the assay on HT-29 is 82.6 µM (inactive).
Regarding `COc1ccc(/C=C/C(=N/NC(=O)N/N=C(/C=C/c2ccc(OC)cc2)C(C)(C)CN2CCCCC2)C(C)(C)CN2CCCCC2)cc1`, the GI50 was 1.37 µM (inactive) in the assay on LOX IMVI; 1.98 µM (inactive) with SK-OV-3; 1.87 µM (inactive) in the assay with SF-295; 1.33 µM (inactive) with HCT-116; 1.65 µM (inactive) in the assay with NCI-H460; 2.7 µM (inactive) in the assay with SN12C. Also, the GI50 in the assay with COLO 205 was 1.65 µM (inactive); in the assay with 786-0, 1.59 µM (inactive); in the assay with SK-MEL-2 it was 1.62 µM (inactive); in the assay with A498, 2.22 µM (inactive); with CCRF-CEM, 1.27 µM (inactive); in the assay on IGROV-1, 2.27 µM (inactive). For the same compound, the GI50 was 3.12 µM in the assay with HCT-15; 1.35 µM (inactive) in the assay with RXF 393; 2.07 µM (inactive) in the assay on NCI-H522; 1.81 µM (inactive) in the assay on KM12; 1.5 µM (inactive) in the assay with HL-60; 1.58 µM (inactive) in the assay with HT-29.
On to `COc1cc(CN[C@H]2CCc3cc(OC)c(OC)c(OC)c3-c3ccc(SC)c(=O)cc32)cc(OC)c1`, for which the GI50 was 0.0465 µM (active) in the assay with LOX IMVI; 0.0284 µM (active) with SK-OV-3; 0.0336 µM (active) in the assay with SF-295; 0.0399 µM (active) in the assay on HCT-116; 0.043 µM (active) with SF-268; 0.0361 µM (active) in the assay on NCI-H460. For the same compound, the GI50 in the assay with SN12C was 0.0367 µM (active); in the assay on COLO 205, 0.0325 µM (active); in the assay on UACC-62, 0.0238 µM (active); in the assay with 786-0, 0.0468 µM (active); with SK-MEL-2, 0.0463 µM (active); with A498, 0.0306 µM (active). The GI50 with IGROV-1 is 0.0403 µM (active); in the assay on HCT-15, 0.0483 µM; in the assay with RXF 393 it was 0.0266 µM (active); with NCI-H522, 0.0245 µM (active); with KM12, 0.0385 µM (active); with HL-60, 0.0394 µM (active). Further, the GI50 in the assay on HT-29 was 0.0249 µM (active).
For `COC(=O)/C=C/c1ccc2c(c1)CC1(Cc3ccccc3C1)C2`, the GI50 with LOX IMVI was > 100 µM (inactive); with SK-OV-3, > 100 µM (inactive); with SF-295 it was > 100 µM (inactive); with HCT-116, 0.0478 µM (active); with SN12C it was > 100 µM (inactive); in the assay with COLO 205 it was > 100 µM (inactive). For the same compound, the GI50 in the assay with UACC-62 is 15.2 µM (inactive); in the assay on 786-0 it was > 100 µM (inactive); with SK-MEL-2, > 100 µM (inactive); with A498 it was > 100 µM (inactive); with CCRF-CEM it was 28 µM (inactive); in the assay with IGROV-1 it was > 100 µM (inactive). Moreover, the GI50 in the assay on HCT-15 was more than 100 µM; with RXF 393 it was 16.5 µM (inactive); in the assay with NCI-H522, 56.9 µM (inactive); with KM12, > 100 µM (inactive); with HL-60, 30.5 µM (inactive); with HT-29 it was 79.4 µM (inactive).
